# Assay results taken from patent publication US20200054649A1, “SKELETAL MUSCLE HYPERTROPHY INDUCERS” (CYTOO, priority 2016, published 2020).
# Where two headings read alike, the source gives them in different places.
# Tests used:
# [1] = system: Myotubes from the healthy donor 3 atrophied with IL-1β, TNF-α or Myostatin; assay: MyoScreen atrophy rescue assay (IL-1β, TNF-α, myostatin as atrophy inducers); assay type: cell-based, human; set-up: key: +++: total rescue; ++: partial rescue; +: low rescue; conditions: nestorone 1 μM, corticosterone 3 μM, mifepristone 1 μM; for atrophy rescue, TNF-alpha: atrophy inducer TNF-α 2 ng/mL; for atrophy rescue, Myostatin: atrophy inducer myostatin 150 ng/mL
# Method: (§1) Hypertrophy and Atrophy Rescue assays were performed using an in vitro fully automated human myotube model called MyoScreen (Cytoo, France). This model relies on a tight control of the microenvironment that guides the differentiation of human primary myoblasts. Myotubes formed on MyoScreen™ micropatterns present a high level of maturation together with a highly standardized morphology.
# (§2) Human primary myoblasts from donors 1, 3 and Z were seeded in MyoScreen™ micropatterned 96-well plates (Cytoo, France), let them adhere for 24 h in growth medium, then run the differentiation in a low horse serum medium for at least 5 days.
# (§3) At Day0, MyoScreen™ plates (Cytoo, France) containing micropatterns were pre-filled with 200 μl/well of growth medium and stored in the incubator at 37° C. Human primary myoblasts were detached from the flasks, count, and seeded into the plates with 15 000 cells per well in 100 μl of growth medium.
# (§4) At Day 1, the growth medium was changed for a differentiation medium, 300 μl/well (DMEM with 0.1% horse serum) in which myoblasts started differentiating and forming myotubes.
# (§5) At Day 2, the differentiation medium was changed. Then candidate compounds were diluted with differentiation medium and transferred into the plate. The final concentration of DMSO should be not higher than 0.1%. At least 6 wells were treated with the vehicle as a basal control, and 6 wells were treated with IGF-1 at 100 ng/ml as positive hypertrophy control.
# For Atrophy Rescue assay, one hour after candidate compound addition, atrophy inducers were added at the following final concentration: 150 ng/mL of myostatin, 25 ng/mL of […] and 2 ng/mL of TNF-α.
# (§6) At Day 6, cells were fixed with formalin 5% for 30 min at room temperature, then permeabilized with Triton X-100 at 0.1% in PBS for 15 min, and blocked with PBS+BSA 1% for 20 minutes. Myotubes were incubated with first antibody against Troponin T in blocking buffer for 1 h30, washed three times with PBS, incubated with secondary antibody and Hoescht (1/10 000) for 1 h30, and washed three times with PBS.
# (§7) Images were acquired at 10× magnification with an Operetta High Content Imaging System. Image processing and analysis were performed with dedicated algorithms developed on the Acapella High Content Imaging Software (Perkin Elmer) by CYTOO. Eleven fields per well were acquired.
# (§8) First, segmentation of myotubes and nuclei were done using respectively the Troponin T staining intensity and the Hoechst staining. One to two myotubes per micropattern were usually identified (a myotube is a troponin T staining area that includes at least 2 nuclei). The threshold of segmentation was set-up in order to avoid detecting the background noise and eliminate aberrant small myotube structures. At the end of this first step, specific readouts were calculated in the whole well, like the nuclei count and the fusion index (percentage of nuclei included in troponin T staining). Usually around 50 to 60 myotubes were detected per well in a control condition.
# (§9) Then, an image clean-up step was performed on the Troponin T images in order to remove myotubes that touch the border of the image. The final valid myotubes were used to extract myotube morphology parameters including the myotube width and area, and the number of nuclei per myotube.
# (§10) Nuclei Count, Fusion Index, Mean myotube Area and Number of nuclei per myotube have been validated as relevant and sensitive readouts of myotube differentiation as well as atrophic and hypertrophic induction.
# Atrophy Rescue assays were performed in the presence of atrophy inducers, i.e. TNF-α, IL-1β and Myostatin. Each compound was tested in triplicate of wells at 1 μM for nestorone, 3 μM for corticostestrone and 1 μM for mifepristone.
# Myotubes from the healthy donor 3 were atrophied using different inducers: inflammation cytokines IL-1β and TNF-α and SMAD pathway activator Myostatin. The ability of each compound to block the atrophy induced by these different atrophy inducers was determined.
# [2] = system: Human primary myoblasts from DMD (Duchenne muscular dystrophy) Donor Z, myotubes; assay: MyoScreen hypertrophy assay, dose response, DMD Donor Z; assay type: cell-based; conditions: for DMD myotube size and differentiation / EC50 / % Activity: Donor Z (DMD); for DMD myotube size and differentiation: dose response; for EC50: Homo sapiens, not defined precisely; for EC50 / % Activity: first dose response assay; for activity: additional dose response assay, Donor Z, Mifepristone at 300 nM, IGF-1 positive control
# Method: In addition, cells from a DMD (Duchenne muscular dystrophy) donor were sourced (Donor Z) and used to confirm primary hits.
# as §1, §2, §3, §4, §5, §6, §7, §8, §9, §10
# (§11) Dose response assays were performed on three donors (Healthy Donors 3 and 1, DMD Donor Z): 8 doses of candidate compounds between 33 μM and 0.015 μM, 2 well replicates per dose.
# (§12) Compounds of interest were tested several times in dose response, with triplicate of wells per dose. Results were normalized to the control condition (basal level), and plotted using GraphPadm Prism. The readout “nuclei count” allowed detecting any toxicity effect. The readouts “fusion index” and “myosin area” were used to determine the EC50 value using the GrapgPad Prism fitting solution. […]
# [3] = system: Human primary myoblasts (HSMM) from healthy Donor 3, myotubes; assay: MyoScreen hypertrophy assay on human primary myoblasts/myotubes, healthy Donor 3; assay type: cell-based; conditions: for EC50 / activity at 10 µM: Homo sapiens
# Method: (§13) Healthy donor primary skeletal cells (Donor 1 and Donor 3) were Clonetics™ Human Skeletal Muscle Myoblasts (HSMM).
# as §1, §2, §3, §4, §5, §6, §7, §8, §9, §10
# A primary screening was run to identify hypertrophy compounds that increase the myotube differentiation and size. Candidate compounds were tested at 10 μM in monoplicate on Donor 3 cells.
# A retest was run, by cherry picking (same compound batch as primary screening): each hit was tested in the same conditions as in the Primary Screening (Donor 3, 10 μM) in six well replicates.
# Dose response assays were performed on three donors (Healthy Donors 3 and 1, DMD Donor Z): 8 doses of candidate compounds between 33 μM and 0.015 μM, 2 well replicates per dose. […]
# [4] = system: Myotubes from the healthy donor 3 atrophied with IL-1β, TNF-α or Myostatin; assay: MyoScreen atrophy rescue assay (IL-1β, TNF-α, myostatin as atrophy inducers); assay type: cell-based, human; set-up: key: +++: total rescue; ++: partial rescue; +: low rescue; conditions: atrophy inducer IL-1β 25 ng/mL, nestorone 1 μM, corticosterone 3 μM, mifepristone 1 μM
# [5] = system: Human primary myoblasts (HSMM) from healthy Donor 1, myotubes; assay: MyoScreen hypertrophy assay, dose response, healthy Donor 1; assay type: cell-based; conditions: first dose response assay; for EC50: Homo sapiens, not defined precisely
# Method: as §13, §1, §2, §3, §4, §5, §6, §7, §8, §9, §10, §11, §12
# [6] = first dose response assay, Donor 3, not defined precisely
# [7] = second dose response assay, Donor 3, lower concentrations
# [8] = Donor 3, compounds at 10 μM, monoplicate, % Activity = myotube fusion index (compound)*100/fusion index (basal control), IGF-1 at 100 ng/ml, read-out: Primary screening (% Activity)
# [9] = Donor 3, compounds at 10 μM, six well replicates, % of basal control fusion index, IGF-1 at 100 ng/ml, read-out: Retest (% Activity)
# [10] = first dose response assay, Donor 3, 33 μM to 0.015 μM
Compound,"atrophy rescue, TNF-alpha [1]","atrophy rescue, Myostatin [1]",DMD myotube size and differentiation [2],EC50 [2] [nM],% Activity [2] [%],"EC50 [3, 6] [nM]","EC50 [3, 7] [nM]","activity at 10 µM [3, 8] [%]","activity at 10 µM [3, 9] [%]","% Activity [3, 10] [%]","% Activity [3, 7] [%]","atrophy rescue, IL-1 [4]",EC50 [5] [nM],% Activity [5] [%],activity [2] [%],"Primary screening (% Activity) ([3]; Donor 3, compounds at 10 μM, monoplicate, % Activity = myotube fusion index (compound)*100/fusion index (basal control), IGF-1 at 100 ng/ml) [%]","Retest (% Activity) ([3]; Donor 3, compounds at 10 μM, six well replicates, % of basal control fusion index, IGF-1 at 100 ng/ml) [%]"
C[C@]12C[C@H](O)[C@H]3[C@@H](CCC4=CC(=O)CC[C@@]43C)[C@@H]1CC[C@@H]2C(=O)CO [Corticosterone],++,+++,significant increase,~500,145,~100,200,148,128,114,120,++,~1000,134,,,
CC(=O)O[C@]1(C(C)=O)CC[C@H]2[C@@H]3C=C(C)C4=CC(=O)CC[C@]4(C)[C@H]3CC[C@@]21C [Megestrol acetate],,,,,,,,133,125,,,,,,,,
C=C1C[C@H]2[C@@H]3C=C(C)C4=CC(=O)CC[C@]4(C)[C@H]3CC[C@]2(C)[C@@]1(OC(C)=O)C(C)=O [Melengestrol acetate],,,,,,,,140,140,,,,,,,,
CC#C[C@]1(O)CC[C@H]2[C@@H]3CCC4=CC(=O)CCC4=C3[C@@H](c3ccc(N(C)C)cc3)C[C@@]21C [Mifepristone],++,+++,,,,~50,100,140,173,133,135,+++,~5,145,156,,
C=C1C[C@H]2[C@@H]3CCC4=CC(=O)CC[C@@H]4[C@H]3CC[C@]2(C)[C@@]1(OC(C)=O)C(C)=O [Nestorone],+,++,significant increase,~100,181,~100,200,153,189,115,133,++,~100,130,,,
CC(=O)[C@H]1CC[C@H]2[C@@H]3CCC4=CC(=O)CC[C@]4(C)[C@H]3CC[C@]12C [Progesterone],,,,,,,,137,114,,,,,,,,
IGF-1: IGF-1 at 100 ng/ml as positive hypertrophy control,+++,+++,,,250,,,,,150,150,+++,,150,200,210,190
